Assay results taken from article PMC12440775 (Frontiers in Pharmacology, 2025).
Like-named read-outs stand apart in the source and are kept apart here.

Tests used:
[1] = Single ascending dose plasma pharmacokinetics (Part 1); type: in vivo, human; details: for half-life / AUC(0-inf) / Cmax / Tmax / AUC(0-t) / Vd/F: male, human, plasma; for Vd/F: read-out: Vz/F
Experimental: One dose level was tested within each group. Subject groups were dosed and evaluated sequentially, beginning with the lowest-dose group and proceeding stepwise to the highest-dose group.
Blood samples were taken pre-dose (0) and at prespecified time points after dosing (Figure 1). At each time point, approximately 4.9 mL of blood was drawn into evacuated collection tubes, containing ethylene diamine tetraacetate (EDTA) anticoagulant and labeled with sample identification information. The EDTA-anticoagulated blood samples were immediately placed on ice and centrifuged at 4 °C and approximately 2000–4,000 g for approximately 10 min in a refrigerated centrifuge as soon as possible after collection. The harvested plasma was split into two aliquots, immediately placed in appropriately labeled tubes, and stored at −20 °C or below until shipment.
(§1) Standard formulas for non-compartmental pharmacokinetic analysis provided by WinNonlin were used in determination of the maximum concentration (Cmax), time to maximum concentration (tmax), oral clearance (CL/F), mean residence time (MRTpo), and apparent volume distribution in terminal phase (Vz/F). The area under the plasma concentration–time curve (AUC) was calculated using a linear up/log down trapezoidal algorithm. The predicted concentration at the last time-point with quantifiable concentration was used for extrapolation of AUC. The fraction excreted as unchanged drug in urine (fe) was calculated as the percentage of the amount of drug excreted in urine as unchanged drug (Aet1–t2) compared to the administered dose ([Huang et al., 2008b]).
The power model was used for the analysis of dose proportionality in terms of AUC0– ∞ and Cmax. The model is described using the following equation: Ykm = α•Dk ^β •ekm. […] Dose linearity requires that β equals 1. […] Statistical analysis was performed using the SAS® program system (version 8.2, Cary, NC) ([Huang et al., 2008b]).

[2] = Urinary excretion of unchanged FDV after single ascending dose (Part 1); type: in vivo, human; details: gMean (gCV%)
Experimental: (§2) Six volunteers received the active drug at each dose level dissolved in a polyethylene glycol (PEG)/tromethamine (TRIS)/meglumine solution, and two received a placebo. One dose level was tested within each group. Subject groups were dosed and evaluated sequentially, beginning with the lowest-dose group and proceeding stepwise to the highest-dose group. The next higher dose was administered only if no safety concerns arose during treatment of the preceding group.
A blank urine sample was collected prior to drug administration, and two 10-mL aliquots were retained to be checked for analytical interference. All urine voided during the sampling intervals 0–4, 4–12, 12–24, and 24–48 h after administration was collected in containers (Figure 1). Subjects were asked to completely void their bladder at the end of each collection interval. The urine volume for each collection interval was documented. Two aliquots of approximately 5 mL were taken and frozen at −20 °C or below and stored for bioanalytical measurement. Until shipped on dry ice to the analytical laboratory, the urine samples were stored at −20 °C or below at the clinical site and stored in the analytical laboratory at −20 °C or below until analysis.
as §1

[3] = Safety and tolerability, food effect part (Part 2); type: in vivo, human
Experimental: as §2
Safety was assessed throughout the study by monitoring changes in clinical laboratory parameters (e.g., serum biochemistry, hematology, and urinalysis), 12-lead electrocardiograms, or vital signs (blood pressure, pulse rate, and temperature measurements); monitoring for occurrence of AEs); and carrying out physical examinations.

[4] = parameters: method as in Duan et al., 2012; details: rats; ref Duan et al., 2012; cited from earlier work
[5] = tested on: human Hepato Pac model; parameters: method as in Ramsden et al., 2014b; details: ref Ramsden et al., 2014b; cited from earlier work
[6] = tested on: CYP2C9; details: therapeutic dose of 120 mg QD; cited from earlier work
[7] = tested on: CYP3A4; details: therapeutic dose of 120 mg QD; cited from earlier work

In the case of `C=C[C@@H]1C[C@]1(NC(=O)[C@@H]1C[C@@H](Oc2cc(-c3csc(NC(=O)C(C)C)n3)nc3c(Br)c(OC)ccc23)CN1C(=O)[C@@H](NC(=O)OC1CCCC1)C(C)(C)C)C(=O)O` [FDV, Faldaprevir], the “Inter-subject variability, gCV of AUC0–∞” value ([1]; higher-dose groups) is reported as 60–80%, the half-life ([1]; oral, range over single doses of 4–1,200 mg, read-out: gMean t1/2) is reported as 15.5 to 39.2 h and the AUC(0-inf) ([1]; oral, range over single doses of 4–1,200 mg, read-out: geometric mean (gMean) AUC0-inf) is reported as 254 to 402000 ng·h/mL. For the same compound, the Cmax ([1]; oral, range over single doses of 4–1,200 mg, read-out: geometric mean (gMean) Cmax) was 3.57 to 16500 ng/mL, the Tmax ([1]; oral, range over single doses of 4–1,200 mg, read-out: median tmax) was 4 to 14 h and the AUC(0-t) ([1]; po, 4 mg) was 201 ng·h/mL. The half-life ([1]; po, 4 mg, FDV 4 mg single oral dose, fasted, gMean (gCV%), read-out: t½ (converted)) was ~39 h, the AUC(0-inf) ([1]; po, 4 mg, read-out: AUC0–∞) was 254 ng·h/mL and the Cmax ([1]; po, 4 mg, read-out: Cmax) was 3.6 ng/mL. For the same compound, the Vd/F ([1]; po, 4 mg) was 868 L, the Tmax ([1]; po, 4 mg, read-out: tmax) was 14 h and the AUC(0-t) ([1]; po, 16 mg) was 1030 ng·h/mL. The half-life ([1]; po, 16 mg, FDV 16 mg single oral dose, fasted, gMean (gCV%), read-out: t½ (converted)) was 31.8 h, the Cmax ([1]; po, 16 mg, read-out: Cmax) was 22.8 ng/mL and the Vd/F ([1]; po, 16 mg) was 600 L. The Tmax ([1]; po, 16 mg, read-out: tmax) was 8 h, the AUC(0-t) ([1]; po, 48 mg) was 3280 ng·h/mL and the half-life ([1]; po, 48 mg, FDV 48 mg single oral dose, fasted, gMean (gCV%), read-out: t½ (converted)) was 37.7 h. The AUC(0-inf) ([1]; po, 48 mg, read-out: AUC0–∞) was 3980 ng·h/mL, the Cmax ([1]; po, 48 mg, read-out: Cmax) was 86.6 ng/mL and the Vd/F ([1]; po, 48 mg) was 640 L. The Tmax ([1]; po, 48 mg, read-out: tmax) was 8 h, the AUC(0-t) ([1]; po, 120 mg) was 9660 ng·h/mL and the half-life ([1]; po, 120 mg, FDV 120 mg single oral dose, fasted, gMean (gCV%), read-out: t½ (converted)) was 27.4 h. The AUC(0-inf) ([1]; po, 120 mg, read-out: AUC0–∞) was 10700 ng·h/mL, the Cmax ([1]; po, 120 mg, read-out: Cmax) was 344 ng/mL and the Vd/F ([1]; po, 120 mg) was 435 L. The Tmax ([1]; po, 120 mg, read-out: tmax) was 7 h, the AUC(0-t) ([1]; po, 240 mg) was 36100 ng·h/mL and the half-life ([1]; po, 240 mg, FDV 240 mg single oral dose, fasted, gMean (gCV%), read-out: t½ (converted)) was 22.2 h. It also gave an AUC(0-inf) ([1]; po, 240 mg, read-out: AUC0–∞) of 37400 ng·h/mL, a Cmax ([1]; po, 240 mg, read-out: Cmax) of 2070 ng/mL and a Vd/F ([1]; po, 240 mg) of 200 L. The Tmax ([1]; po, 240 mg, read-out: tmax) was 4 h, the AUC(0-t) ([1]; po, 480 mg) was 74100 ng·h/mL and the half-life ([1]; po, 480 mg, FDV 480 mg single oral dose, fasted, gMean (gCV%), read-out: t½ (converted)) was 33.3 h. The AUC(0-inf) ([1]; po, 480 mg, read-out: AUC0–∞) was 80700 ng·h/mL, the Cmax ([1]; po, 480 mg, read-out: Cmax) was 4300 ng/mL and the Vd/F ([1]; po, 480 mg) was 278 L. For the same compound, the Tmax ([1]; po, 480 mg, read-out: tmax) was 4 h, the AUC(0-t) ([1]; po, 800 mg) was 127000 ng·h/mL and the half-life ([1]; po, 800 mg, FDV 800 mg single oral dose, fasted, gMean (gCV%), read-out: t½ (converted)) was ~16 h. The AUC(0-inf) ([1]; po, 800 mg, read-out: AUC0–∞) was 128000 ng·h/mL, the Cmax ([1]; po, 800 mg, read-out: Cmax) was 6630 ng/mL and the Vd/F ([1]; po, 800 mg) was 141 L. It also gave a Tmax ([1]; po, 800 mg, read-out: tmax) of 9 h, an AUC(0-t) ([1]; po, 1200 mg) of 397000 ng·h/mL and a half-life ([1]; po, 1200 mg, FDV 1,200 mg single oral dose, fasted, gMean (gCV%), read-out: t½ (converted)) of ~16 h. The AUC(0-inf) ([1]; po, 1200 mg, read-out: AUC0–∞) was 402000 ng·h/mL, the Cmax ([1]; po, 1200 mg, read-out: Cmax) was 16500 ng/mL and the Vd/F ([1]; po, 1200 mg) was 65 L. The Tmax ([1]; po, 1200 mg, read-out: tmax) was 8 h, the “Inter-subject variability, gCV of AUC0–∞” value ([1]; most of the lower-dose groups) was “approximately 30%” and the “Fe0–48h (fraction excreted in urine)” value ([2]; FDV 48 mg single oral dose) was 0.01 (165) %. The “Fe0–48h (fraction excreted in urine)” value ([2]; FDV 120 mg single oral dose) was 0.02 (93) %, the “Fe0–48h (fraction excreted in urine)” value ([2]; FDV 240 mg single oral dose) was 0.04 (68) % and the “Fe0–48h (fraction excreted in urine)” value ([2]; FDV 480 mg single oral dose) was 0.04 (37) %. The “Fe0–48h (fraction excreted in urine)” value ([2]; FDV 800 mg single oral dose) was 0.03 (110) %, the “Fe0–48h (fraction excreted in urine)” value ([2]; FDV 1,200 mg single oral dose) was 0.03 (54) % and the “Subjects with increases in total bilirubin” value ([3]; 480 mg, Part 2) was “eight subjects”. For the same compound, the Diarrhea and nausea ([3]; Part 2, FDV 480 mg (n = 8)) was “three subjects”, the Headache ([3]; Part 2, FDV 480 mg (n = 8)) was “one subject” and the Vomiting ([3]; Part 2, FDV 480 mg (n = 8)) was “two subjects”. The “Enrichment in the liver compared with plasma” value [4] was 42 fold, the “Predicted enrichment in the liver in humans” value [5] was 22–32 fold and the “Effect on CYP2C9” value [6] was “inhibitory effects”. The “Effect on CYP3A4” value [7] was “weak inhibitory effects”.
